Measured values: patent US9113629B2, “4-amino-6-(4-substituted-phenyl)-picolinates and 6-amino-2-(4-substituted-phenyl)-pyrimidine-4-carboxylates and their use as herbicides” (DOW AGROSCIENCES LLC, priority 2013, dated 2015)
Like-named read-outs stand apart in the source and are kept apart here.

What was measured:
[1] = system: Key Broadleaf Weed and Crop Species; experiment: Post-emergent Test II herbicidal activity (Table 5); type: in vivo; details: post-emergence, 336 h, post-emergent, 14 days after application; for pest or weed control at 70 g/ha: 70 g ai/ha; for pest or weed control at 140 g/ha: 140 g ai/ha
In short: (§1)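 Scoring: visual, 0–100% injury at 14 d versus untreated. Treatment: overhead track spray, 187 L/ha, onto plants at the first–second true leaf stage. Growth: greenhouse, ~15 h light, 23–29 °C day, 22–28 °C night.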

[2] = system: Key Grass and Sedge Weeds as well as Grass Crops; experiment: Post-emergent Test II herbicidal activity (Table 6); type: in vivo; details: post-emergence, 336 h; for pest or weed control at 70 g/ha: application rate 70 g ai/ha; for pest or weed control at 140 g/ha: application rate 140 g ai/ha
In short: as §1

[3] = ABUTH: velvetleaf (Abutilon theophrasti), read-out: Visual Growth Reduction (%) 14 Days After Application ABUTH
[4] = AMARE: redroot pigweed (Amaranthus retroflexus), read-out: Visual Growth Reduction (%) 14 Days After Application AMARE
[5] = BRSNN: oilseed-rape, canola (Brassica napus), read-out: Visual Growth Reduction (%) 14 Days After Application BRSNN
[6] = CHEAL: lambsquarters (Chenopodium album), read-out: Visual Growth Reduction (%) 14 Days After Application CHEAL
[7] = EPHHL: wild poinsettia (Euphorbia heterophylla), read-out: Visual Growth Reduction (%) 14 Days After Application EPHHL
[8] = HELAN: sunflower (Helianthus annuus), read-out: Visual Growth Reduction (%) 14 Days After Application HELAN
[9] = VIOTR: wild pansy (Viola tricolor), read-out: Visual Growth Reduction (%) 14 Days After Application VIOTR
[10] = Triticum aestivum, TRZSS (wheat), read-out: Visual Growth Reduction (%) 14 Days After Application, TRZSS
[11] = CYPES: yellow nutsedge (Cyperus esculentus), read-out: Visual Growth Reduction (%) 14 Days After Application, CYPES
[12] = DIGSA: crabgrass (Digitaria sanguinalis), read-out: Visual Growth Reduction (%) 14 Days After Application, DIGSA
[13] = ECHCG: barnyardgrass (Echinochloa crus-galli), read-out: Visual Growth Reduction (%) 14 Days After Application, ECHCG
[14] = ORYSA: rice (Oryza sativa), read-out: Visual Growth Reduction (%) 14 Days After Application, ORYSA
[15] = SETFA: giant foxtail (Setaria faberi), read-out: Visual Growth Reduction (%) 14 Days After Application, SETFA
[16] = SORVU: grain sorghum (Sorghum vulgare), read-out: Visual Growth Reduction (%) 14 Days After Application, SORVU
[17] = ZEAMX: maize, corn (Zea mays), read-out: Visual Growth Reduction (%) 14 Days After Application, ZEAMX

C=Cc1c(C(=O)OC)nc(-c2ccc(C#N)cc2)c(F)c1N [Compound 107, methyl 4-amino-6-(4-cyanophenyl)-5-fluoro-3-vinylpicolinate]
pest or weed control at 70 g/ha [1, 3]: 75 to 84%
pest or weed control at 140 g/ha [1, 3]: 75 to 84%
pest or weed control at 70 g/ha [1, 4]: 0 to 29%
pest or weed control at 140 g/ha [1, 4]: 0 to 29%
pest or weed control at 70 g/ha [1, 5]: 0 to 29%
pest or weed control at 140 g/ha [1, 5]: 0 to 29%
pest or weed control at 70 g/ha [1, 6]: 95 to 100%
pest or weed control at 140 g/ha [1, 6]: 95 to 100%
pest or weed control at 70 g/ha [1, 7]: 95 to 100%
pest or weed control at 140 g/ha [1, 7]: 95 to 100%
pest or weed control at 70 g/ha [1, 8]: 75 to 84%
pest or weed control at 140 g/ha [1, 8]: 85 to 94%
pest or weed control at 70 g/ha [1, 9]: 0 to 29%
pest or weed control at 140 g/ha [1, 9]: 0 to 29%
pest or weed control at 70 g/ha [2, 10]: 0 to 29%
pest or weed control at 140 g/ha [2, 10]: 0 to 29%
pest or weed control at 70 g/ha [2, 11]: 0 to 29%
pest or weed control at 140 g/ha [2, 11]: 60 to 74%
pest or weed control at 70 g/ha [2, 12]: 0 to 29%
pest or weed control at 140 g/ha [2, 12]: 0 to 29%
pest or weed control at 70 g/ha [2, 13]: 0 to 29%
pest or weed control at 140 g/ha [2, 13]: 0 to 29%
pest or weed control at 70 g/ha [2, 14]: 0 to 29%
pest or weed control at 140 g/ha [2, 14]: 0 to 29%
pest or weed control at 70 g/ha [2, 15]: 0 to 29%
pest or weed control at 140 g/ha [2, 15]: 0 to 29%
pest or weed control at 70 g/ha [2, 16]: 0 to 29%
pest or weed control at 140 g/ha [2, 16]: 0 to 29%
pest or weed control at 70 g/ha [2, 17]: 0 to 29%
pest or weed control at 140 g/ha [2, 17]: 0 to 29%
